Patent US20090269795A1, “Mutant alpha4betadelta GABAA receptor and methods of treating anxiety or irritability” (priority 2007, published 2009)

Key:
α4β3δ receptors = assay: Whole cell patch clamp of GABA-gated current, recombinant receptors in HEK-293 cells; format: cell-based, human or mouse α4, rat β3, human δ; settings: 30 nM THP
From the text: (§1) Recombinant receptors: Transfection—Plasmids obtained from S. Vicini (rat α1, α5, β2, β3 and γ2), P. Whiting (human α4 and δ) and N. L. Harrison (mouse α4) were propagated in E coli DH5α and prepared using Qiagen Maxi- or Midi-prep kits. (Rat, mouse and human α1, β2, β3 and γ2 subunits are identical or nearly identical.) All receptors were transfected at a 1:1:1 ratio, except α1β2γ2 (1:1:5)^12, α4βδ (5:1:5)^13 and α4β2γ2 (5:1:1). HEK-293 cells were maintained in medium (DMEM:Ham's F-12 1:1) supplemented with 10% fetal calf serum at 37° C. in a humid 5% CO2 atmosphere. Cells were transfected using calcium phosphate or Polyfect (Qiagen) and co-transfected with enhanced green fluorescent protein (ratio of DNA to eGFP was 6:1 or 10:1 depending on the DNA concentration) for visualization. α4-containing GABAA receptors required 2-3 d for maximal levels of expression; all other receptors were recorded 1-2 d after transfection. Because mouse α4 and human α4-containing receptors yielded the same results, the currents were averaged together.
(§2) Whole cell patch clamp recording—GABA-gated currents were recorded at room temperature (20-22° C.) at a holding potential of −50 mV^14. […] Currents were recorded using an Axopatch 1D amplifier (Axon Instruments) filtered at 2 kHz (four-pole Bessel filter) and detected at 10 kHz (pClamp 5.1). […]

α4β2γ2 receptors = assay: as above; format: cell-based, human or mouse α4, rat β2, rat γ2; settings: 30 nM THP
From the text: as §1, §2

thalamic relay neurons = assay: Tonic current in thalamic relay neurons, slice; format: cell-based, mouse; settings: pre-pubertal; n=6
Method: Hippocampal slice: Slice preparation^20: Animals were rapidly decapitated, and the brains removed and cooled using an ice cold solution of artificial cerebrospinal fluid (aCSF) containing (in mM): NaCl 124, KCl 5, CaCl2 2, KH2PO4 1.25, MgSO4 2, NaHCO3 26, and glucose 10, saturated with 95% O2, 5% CO2 and buffered to a pH of 7.4. Following sectioning at 400 μm on a Leica oscillating microtome, slices were incubated for one hour in oxygenated aCSF. Slice recording: Pyramidal cells in CA1 hippocampal slice^20 or thalamic relay neurons in the ventral tier were visualized using a Leica DIC-infrared upright microscope, and recorded at −50 or −60 mV using whole cell patch clamp procedures at room temperature (20-22° C., Axopatch 200B amplifier, Axon Instruments, 20 kHz sampling frequency, 2 kHz 4-pole Bessel filter) and pClamp 9.2 software. Patch pipets were fabricated to yield open tip resistances of 2-4 MΩ. Internal solution in mM for ECl=−70 (or ECl=−30): K-gluconate 141.5 (O), KCl 0 (52.3), CsCl 8.5 (145), HEPES 5, EGTA 5, CaCl2-H2O 0.5, QX-314 5 (Calbiochem), Mg-ATP 2, Li-GTP 0.5, pH 7.2, 290 mOsm. […] Electrode capacitance and series resistance were monitored and compensated; access resistance was monitored throughout the experiment, and cells discarded if the access resistance >10 MΩ. […]

`CC(=O)[C@H]1CC[C@H]2[C@@H]3CC[C@H]4C[C@H](O)CC[C@]4(C)[C@H]3CC[C@]12C` [THP, 3α-OH-5α[β]-pregnan-20-one] was tested, and the “effect on outward current” value (α4β3δ receptors) was “either increased or had no effect”, the “effect on outward current” value (α4β2γ2 receptors) was “either increased or had no effect” and the “reduction of tonic current” value (thalamic relay neurons) was 57±12%.
